Laboratory results: patent US11179326B2, “Short duration depot formulations” (Durect Corporation, priority 2002, dated 2021)
Structures can show the parent of a compound that is named as a salt.

Tests used:
[1] = Saturation concentration in de-ionized water; format: physicochemical; details: DI water
Protocol: Bupivacaine hydrochloride (Sigma-Aldrich Corporation, St. Louis, MO) was dissolved in de-ionized (DI) water at a concentration of 40 mg/ml (saturation). A calculated amount of sodium hydroxide (1 N solution) was added to the solution and the pH of the final mixtures was adjusted to 10 to precipitate the BP base. The precipitated product was filtered, and further washed with DI water for at least three times. The precipitated product was dried at approximately 40° C. in vacuum for 24 h.

[2] = reported value; cited from earlier work

Row | concentration in de-ionized water (saturation) [1] | SMILES | solubility in water [2]
1 | 40000 µg/mL | CCCCN1CCCCC1C(=O)Nc1c(C)cccc1C (centres unmarked) [Bupivacaine hydrochloride] | –
2 | – | CC(=O)OCC(COC(C)=O)OC(C)=O [triacetin] | 7.17 grams in 100 ml of water
